Data published in the supplement of paper PMC10883282.

How the values were obtained:
Assay in all cases: relative viability vs DMSO control (72 h) (fraction); higher = more viable cells
A204 = tested on: A204
Summary of the method: (§1)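 After seeding at densities set for 80–90% confluence in 384-well plates, sarcoma cell lines waited 24 h before 2.5 µl of serially diluted compound was added. Source plates held 10 mM down to 0.0002 mM. Plates were incubated 72 h at 37 °C with 5% CO2, with 0.1% DMSO vehicle and a 5 µM positive control, and relative viability was taken from ATPLite as percent growth averaged over up to triplicate wells, with 1 set as full and 0 as none.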

G401 = tested on: G401
Summary of the method: as §1

HT1080 = tested on: HT1080
Summary of the method: as §1

KHOS-240S = tested on: KHOS-240S
Summary of the method: as §1

KHOS-NP = tested on: KHOS-NP
Summary of the method: as §1

RD-ES = tested on: RD-ES
Summary of the method: as §1

SK-ES-1 = tested on: SK-ES-1
Summary of the method: as §1

SW1353 = tested on: SW1353
Summary of the method: as §1

SW684 = tested on: SW684
Summary of the method: as §1

SW872 = tested on: SW872
Summary of the method: as §1

SW982 = tested on: SW982
Summary of the method: as §1

SYO-1 = tested on: SYO-1
Summary of the method: as §1

CNC(=O)c1cc(Oc2ccc(NC(=O)Nc3ccc(Cl)c(C(F)(F)F)c3)cc2)ccn1 [Sorafenib]
Conditions	relative viability
A204, 0.00017 µM	1.07
A204, 0.00051 µM	1.1
A204, 0.00152 µM	1.09
A204, 0.00457 µM	1.11
A204, 0.01372 µM	1.06
A204, 0.04115 µM	1.08
A204, 0.1235 µM	0.914
A204, 0.3704 µM	0.567
A204, 1.111 µM	0.51
A204, 3.333 µM	0.385
A204, 10 µM	0.157
G401, 0.00017 µM	0.997
G401, 0.00051 µM	1
G401, 0.00152 µM	1.01
G401, 0.00457 µM	1.01
G401, 0.01372 µM	1.04
G401, 0.04115 µM	1.01
G401, 0.1235 µM	1.02
G401, 0.3704 µM	0.988
G401, 1.111 µM	0.893
G401, 3.333 µM	0.684
G401, 10 µM	0.147
HT1080, 0.00017 µM	1.06
HT1080, 0.00051 µM	1.06
HT1080, 0.00152 µM	1.1
HT1080, 0.00457 µM	1.08
HT1080, 0.01372 µM	1.07
HT1080, 0.04115 µM	1.07
HT1080, 0.1235 µM	1.08
HT1080, 0.3704 µM	1.12
HT1080, 1.111 µM	1.102
HT1080, 3.333 µM	0.94
HT1080, 10 µM	0.0932
KHOS-240S, 0.00017 µM	1.04
KHOS-240S, 0.00051 µM	1.07
KHOS-240S, 0.00152 µM	1.09
KHOS-240S, 0.00457 µM	1.08
KHOS-240S, 0.01372 µM	1.06
KHOS-240S, 0.04115 µM	1.08
KHOS-240S, 0.1235 µM	1.08
KHOS-240S, 0.3704 µM	1.11
KHOS-240S, 1.111 µM	1.05
KHOS-240S, 3.333 µM	0.728
KHOS-240S, 10 µM	0.309
KHOS-NP, 0.00017 µM	1.09
KHOS-NP, 0.00051 µM	1.09
KHOS-NP, 0.00152 µM	1.1
KHOS-NP, 0.00457 µM	1.09
KHOS-NP, 0.01372 µM	1.08
KHOS-NP, 0.04115 µM	1.1
KHOS-NP, 0.1235 µM	1.103
KHOS-NP, 0.3704 µM	1.08
KHOS-NP, 1.111 µM	0.993
KHOS-NP, 3.333 µM	0.534
KHOS-NP, 10 µM	0.375
RD-ES, 0.00017 µM	0.972
RD-ES, 0.00051 µM	0.98
RD-ES, 0.00152 µM	0.963
RD-ES, 0.00457 µM	0.992
RD-ES, 0.01372 µM	1
RD-ES, 0.04115 µM	0.987
RD-ES, 0.1235 µM	0.987
RD-ES, 0.3704 µM	0.992
RD-ES, 1.111 µM	0.994
RD-ES, 3.333 µM	0.903
RD-ES, 10 µM	0.274
SK-ES-1, 0.00017 µM	0.978
SK-ES-1, 0.00051 µM	1.01
SK-ES-1, 0.00152 µM	1.04
SK-ES-1, 0.00457 µM	1.05
SK-ES-1, 0.01372 µM	1.07
SK-ES-1, 0.04115 µM	1.01
SK-ES-1, 0.1235 µM	1.06
SK-ES-1, 0.3704 µM	1.07
SK-ES-1, 1.111 µM	0.96
SK-ES-1, 3.333 µM	0.8855
SK-ES-1, 10 µM	0.252
SW684, 0.00017 µM	1.2
SW684, 0.00051 µM	1.2
SW684, 0.00152 µM	1.18
SW684, 0.00457 µM	1.19
SW684, 0.01372 µM	1.16
SW684, 0.04115 µM	1.2
SW684, 0.1235 µM	1.23
SW684, 0.3704 µM	1.27
SW684, 1.111 µM	1.32
SW684, 3.333 µM	0.938
SW684, 10 µM	0.276
SW872, 0.00017 µM	1.09
SW872, 0.00051 µM	1.09
SW872, 0.00152 µM	1.05
SW872, 0.00457 µM	1.06
SW872, 0.01372 µM	1.09
SW872, 0.04115 µM	1.09
SW872, 0.1235 µM	1.07
SW872, 0.3704 µM	1.09
SW872, 1.111 µM	1.07
SW872, 3.333 µM	1.02
SW872, 10 µM	0.553
SW982, 0.00017 µM	1.07
SW982, 0.00051 µM	1.06
SW982, 0.00152 µM	1.05
SW982, 0.00457 µM	1.07
SW982, 0.01372 µM	1.06
SW982, 0.04115 µM	1.07
SW982, 0.1235 µM	1.07
SW982, 0.3704 µM	1.07
SW982, 1.111 µM	1.06
SW982, 3.333 µM	0.992
SW982, 10 µM	0.559
SW1353, 0.00017 µM	0.98
SW1353, 0.00051 µM	1.02
SW1353, 0.00152 µM	1.01
SW1353, 0.00457 µM	1.01
SW1353, 0.01372 µM	1.01
SW1353, 0.04115 µM	1.01
SW1353, 0.1235 µM	0.992
SW1353, 0.3704 µM	1.02
SW1353, 1.111 µM	1.04
SW1353, 3.333 µM	0.85
SW1353, 10 µM	0.39
SYO-1, 0.00017 µM	0.968
SYO-1, 0.00051 µM	0.967
SYO-1, 0.00152 µM	0.96
SYO-1, 0.00457 µM	0.95
SYO-1, 0.01372 µM	0.948
SYO-1, 0.04115 µM	0.944
SYO-1, 0.1235 µM	0.916
SYO-1, 0.3704 µM	0.773
SYO-1, 1.111 µM	0.626
SYO-1, 3.333 µM	0.509
SYO-1, 10 µM	0.137

Cc1cn(-c2cc(NC(=O)c3ccc(C)c(Nc4nccc(-c5cnccn5)n4)c3)cc(C(F)(F)F)c2)cn1 [Radotinib]
Conditions	relative viability
A204, 0.00017 µM	1.09
A204, 0.00051 µM	1.11
A204, 0.00152 µM	1.09
A204, 0.00457 µM	1.13
A204, 0.01372 µM	1.14
A204, 0.04115 µM	1.13
A204, 0.1235 µM	1.11
A204, 0.3704 µM	1.07
A204, 1.111 µM	0.836
A204, 3.333 µM	0.629
A204, 10 µM	0.451
G401, 0.00017 µM	1.02
G401, 0.00051 µM	1.06
G401, 0.00152 µM	1.07
G401, 0.00457 µM	1.1
G401, 0.01372 µM	1.12
G401, 0.04115 µM	1.11
G401, 0.1235 µM	1.1
G401, 0.3704 µM	1.08
G401, 1.111 µM	1.04
G401, 3.333 µM	0.984
G401, 10 µM	0.931
HT1080, 0.00017 µM	1.07
HT1080, 0.00051 µM	1.06
HT1080, 0.00152 µM	1.07
HT1080, 0.00457 µM	1.07
HT1080, 0.01372 µM	1.07
HT1080, 0.04115 µM	1.06
HT1080, 0.1235 µM	1.07
HT1080, 0.3704 µM	1.09
HT1080, 1.111 µM	1.03
HT1080, 3.333 µM	1.12
HT1080, 10 µM	1.06
KHOS-240S, 0.00017 µM	1.07
KHOS-240S, 0.00051 µM	1.07
KHOS-240S, 0.00152 µM	1.07
KHOS-240S, 0.00457 µM	1.07
KHOS-240S, 0.01372 µM	1.05
KHOS-240S, 0.04115 µM	1.06
KHOS-240S, 0.1235 µM	1.07
KHOS-240S, 0.3704 µM	1.05
KHOS-240S, 1.111 µM	1.04
KHOS-240S, 3.333 µM	1.05
KHOS-240S, 10 µM	1.02
KHOS-NP, 0.00017 µM	1.12
KHOS-NP, 0.00051 µM	1.09
KHOS-NP, 0.00152 µM	1.11
KHOS-NP, 0.00457 µM	1.11
KHOS-NP, 0.01372 µM	1.12
KHOS-NP, 0.04115 µM	1.12
KHOS-NP, 0.1235 µM	1.11
KHOS-NP, 0.3704 µM	1.1
KHOS-NP, 1.111 µM	1.1
KHOS-NP, 3.333 µM	1.09
KHOS-NP, 10 µM	1.07
RD-ES, 0.00017 µM	0.982
RD-ES, 0.00051 µM	1.02
RD-ES, 0.00152 µM	1.01
RD-ES, 0.00457 µM	1.02
RD-ES, 0.01372 µM	1.005
RD-ES, 0.04115 µM	1.01
RD-ES, 0.1235 µM	1.03
RD-ES, 0.3704 µM	1.01
RD-ES, 1.111 µM	1
RD-ES, 3.333 µM	0.991
RD-ES, 10 µM	1.01
SK-ES-1, 0.00017 µM	1.02
SK-ES-1, 0.00051 µM	1.01
SK-ES-1, 0.00152 µM	1.047
SK-ES-1, 0.00457 µM	1.04
SK-ES-1, 0.01372 µM	1.07
SK-ES-1, 0.04115 µM	1.07
SK-ES-1, 0.1235 µM	1.05
SK-ES-1, 0.3704 µM	1.03
SK-ES-1, 1.111 µM	1.02
SK-ES-1, 3.333 µM	1.01
SK-ES-1, 10 µM	1.074
SW684, 0.00017 µM	1.13
SW684, 0.00051 µM	1.17
SW684, 0.00152 µM	1.2
SW684, 0.00457 µM	1.21
SW684, 0.01372 µM	1.17
SW684, 0.04115 µM	1.19
SW684, 0.1235 µM	1.26
SW684, 0.3704 µM	1.33
SW684, 1.111 µM	1.38
SW684, 3.333 µM	1.24
SW684, 10 µM	1.22
SW872, 0.00017 µM	1.06
SW872, 0.00051 µM	1.07
SW872, 0.00152 µM	1.07
SW872, 0.00457 µM	1.07
SW872, 0.01372 µM	1.07
SW872, 0.04115 µM	1.07
SW872, 0.1235 µM	1.08
SW872, 0.3704 µM	1.06
SW872, 1.111 µM	0.98
SW872, 3.333 µM	0.915
SW872, 10 µM	0.889
SW982, 0.00017 µM	1.066
SW982, 0.00051 µM	1.07
SW982, 0.00152 µM	1.08
SW982, 0.00457 µM	1.07
SW982, 0.01372 µM	1.069
SW982, 0.04115 µM	1.08
SW982, 0.1235 µM	1.1
SW982, 0.3704 µM	1.11
SW982, 1.111 µM	1.11
SW982, 3.333 µM	1.13
SW982, 10 µM	1.12
SW1353, 0.00017 µM	1.02
SW1353, 0.00051 µM	1.023
SW1353, 0.00152 µM	1.06
SW1353, 0.00457 µM	1.06
SW1353, 0.01372 µM	1.06
SW1353, 0.04115 µM	1.1
SW1353, 0.1235 µM	1.19
SW1353, 0.3704 µM	1.21
SW1353, 1.111 µM	1.25
SW1353, 3.333 µM	1.22
SW1353, 10 µM	1.17
SYO-1, 0.00017 µM	0.976
SYO-1, 0.00051 µM	0.978
SYO-1, 0.00152 µM	0.987
SYO-1, 0.00457 µM	0.967
SYO-1, 0.01372 µM	0.989
SYO-1, 0.04115 µM	0.988
SYO-1, 0.1235 µM	0.993
SYO-1, 0.3704 µM	0.945
SYO-1, 1.111 µM	0.802
SYO-1, 3.333 µM	0.688
SYO-1, 10 µM	0.644
